# Results as given in paper PMC11470957, “Principles of paralog-specific targeted protein degradation engaging the C-degron E3 KLHDC2” (Nature Communications, 2024).
# “And” between values parts separate entries of the source, which are not always exact repeats. Identical values can stand only once.
# What was measured:
# KLHDC2^SBD [1] = target: T1, KLHDC2^SBD (Homo sapiens, UniProt Q9Y2U9); experiment: Surface plasmon resonance binding to KLHDC2; parameters: KLHDC2^SBD (15-361) and its Avi-tagged counterpart were expressed in E. coli Rosetta2 cells; 6XHis-MBP (N, cleaved yes); made in house; host or cells: E. coli Rosetta2; details: for SPR Rmax / SPR dissociation constant kd: n=1; for Kd: read-out: SPR Kd; for SPR Response: FigS2d
# T1 sequence (Q9Y2U9 15-361): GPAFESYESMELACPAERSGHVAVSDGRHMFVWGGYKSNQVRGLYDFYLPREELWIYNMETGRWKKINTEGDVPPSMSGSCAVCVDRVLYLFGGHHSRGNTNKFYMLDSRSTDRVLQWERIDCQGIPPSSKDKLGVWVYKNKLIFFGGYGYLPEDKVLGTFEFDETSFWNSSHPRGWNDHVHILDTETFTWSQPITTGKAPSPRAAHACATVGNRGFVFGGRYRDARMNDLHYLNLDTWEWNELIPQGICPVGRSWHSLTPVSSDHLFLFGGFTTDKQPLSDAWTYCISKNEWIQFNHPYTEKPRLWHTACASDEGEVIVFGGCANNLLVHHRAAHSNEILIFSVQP
# Method: Surface plasmon resonance (SPR) was utilized to determine kinetic parameters and binding affinity of KLHDC2 substrates using a PioneerFE (Sartorius). Experiments were carried out in 20 mM Tris, 200 mM NaCl, 1 mM TCEP, 0.01% Brij35, and 1% DMSO at pH 7.4 as a running buffer with a 100 µL/min flow rate at 20 °C.
# The 10xHis-KLHDC2 was immobilized onto a Ni-NTA-coated biosensor chip (HisCap). The chip surface was conditioned using 10 mM HCl, 50 mM NaOH, and 0.1% SDS (50 µL at 100 µL/min) twice, followed by a 100 mM Tris buffer wash (100 µL at 100 µL/min). The surface was then activated using an injection of 0.5 M EDTA (125 µL at 25 µL/min) followed by an injection of 5 mM NiCl2 (125 µL at 25 µL/min). […] Channel 2 was treated identically to channel 3 except for protein loading to be used as a reference channel. […] 100% of the loop was injected with a 300 s dissociation time. All samples were run in triplicate. Data was analyzed using Qdat software and fit to a simple 1-site model.
# The SPR experiments were performed to determine the binding affinities (KD) of KLHDC2-SJ46411 and KLHDC2-SJ46418 complexes. All the experiments were performed using a Biacore 1S+ instrument. […] The running buffer consisted of 20 mM Tris pH 7.5, 200 mM NaCl, 1 mM TCEP, 0.01% Brij35, and 4% DMSO. […] In brief, before the immobilization, the sensor chip surface was conditioned by injecting a mixture of (3:1 v/v) 8 M guanidine hydrochloride and 1 M NaOH at a flow rate of 5 μL/min for 2 min for two times. Then, running buffer was injected at a 30 μl/min flow rate for 1 min 3 times. Next, the Biotin CAPture reagent was injected at a flow rate of 2 μl/min for 5 min. Then, biotinylated KLHDC2 was only injected onto the active channel (channel 2).
# Sample preparation was carried out precisely the same as SJ46411. All experiments were performed using a multi-cycle analysis method with a 30 μl/min flow rate, 120 S association, and 240 s dissociation time. All data were reference subtracted and corrected for DMSO mismatch. The sensorgrams were analyzed using Biacore insight evaluation software, and KD was determined using the 1:1 steady-state affinity fitting. Finally, all the analyzed data was replotted using GraphPad Prizm 10 software.
# KLHDC2^SBD [2] = target: T1, KLHDC2^SBD; experiment: ITC, binary binding of small molecule to KLHDC2^SBD
# BRD4 = BRD4 (Homo sapiens, UniProt O60885); experiment: Western blot of BRD4 levels after cellular dosing
# [3] = ITC Kd, cell: ligand, syringe: KLHDC2^SBD
# [4] = cell: ligand, syringe: KLHDC2^SBD
SMILES,SPR Rmax (KLHDC2^SBD [1]),SPR dissociation constant kd (KLHDC2^SBD [1]),Kd (KLHDC2^SBD [1]),Kd (KLHDC2^SBD [2]; [3]),ITC -TΔS (KLHDC2^SBD [2]; [4]),ITC stoichiometry of binding N (KLHDC2^SBD [2]; [4]),ITC ΔG (KLHDC2^SBD [2]; [4]),ITC ΔH (KLHDC2^SBD [2]; [4]),further results
O=C(O)CNC(=O)Cc1csc(-c2ccccc2F)n1 [SJ6145],8.25 +/- 0.01,4.19 s⁻¹,16.9 µM,–,–,–,–,–,–
COCOc1ccc(-c2nc(CC(=O)NCC(=O)O)cs2)c(Cl)c1 [SJ10278],11.33 +/- 0.02,2.03 s⁻¹,8.8 µM and 8.79 µM,–,–,–,–,–,–
O=C(O)CNC(=O)Cc1csc(-c2ccc3ccccc3c2)n1 [SJ46411],24.50 +/- 0.30,–,0.5 µM and 0.526 µM,~260 nM and 220 nM,-1.52 +/- 0.04 kcal/mol-1,0.9,-8.81 +/- 0.07 kcal/mol-1,-7.30 +/- 0.10 kcal/mol-1,"Kd (KLHDC2^SBD [2]; Kd, ITC, syringe KLHDC2, cell compound, Rep1, Rep2): 202 nM and 238 nM; SPR Response (KLHDC2^SBD [1]; analyte 0.146484 μM): 4.647 RU; SPR Response (KLHDC2^SBD [1]; analyte 0.292969 μM): 7.784 RU; SPR Response (KLHDC2^SBD [1]; analyte 0.585938 μM): 11.5982 RU; SPR Response (KLHDC2^SBD [1]; analyte 2.34375 μM): 17.8875 RU; SPR Response (KLHDC2^SBD [1]; analyte 4.6875 μM): 19.5092 RU; SPR Response (KLHDC2^SBD [1]; analyte 9.375 μM): 20.5795 RU"
Cc1sc2c(c1C)C(c1ccc(Cl)cc1)=N[C@@H](CC(=O)N1CCN(CCOc3cccc4ccc(-c5nc(CC(=O)NCC(=O)O)cs5)cc34)CC1)c1nnc(C)n1-2 [SJ46421],–,–,–,304 ± 39 nM,-1.03 +/- 0.22 kcal/mol-1,0.8,-9.1 +/- 0.02 kcal/mol-1,-8.07 +/- 0.22 kcal/mol-1,"Kd (KLHDC2^SBD [2]; Kd, Rep1/Rep2, ITC source data Fig4a, syringe KLHDC2, cell PROTAC alone): 338 nM and 269 nM; BRD4 level, Western blot quantification (DMSO = 100) (BRD4; Fig 6b, KO/Rescue, 5 uM): 89.649 and 113.548; BRD4 level, Western blot quantification (DMSO = 100) (BRD4; Fig 6b, U2OS, 5 uM): 119.505 and 104.107; BRD4 level, Western blot quantification (DMSO = 100) (BRD4; Fig S6a, 293T cells, 2.5 uM): 98.5503 and 107.435; BRD4 level, Western blot quantification (DMSO = 100) (BRD4; Fig S6a, 293T cells, 5 uM): 86.1267 and 99.7257; BRD4 level, Western blot quantification (DMSO = 100) (BRD4; Fig S6b, MDA-MB468 Cells, 10 uM): 94.0762 and 99.1924"
